One data set deals with T1, BuChE from human serum (Homo sapiens, UniProt P06276).
T1 construct: 0.1 unit/ml BuChE from human serum; from tissue; host or cells: human serum
The data set is described as follows: Butyrylcholinesterase (BuChE) inhibition, Ellman colorimetric method. In kind it is biochemical. The procedure: Butyrylcholinesterase (BuChE) Inhibition (from Human Serum)
BuChE inhibitory activity was evaluated at 30° C. by the colorimetric method reported by Ellman [Ellman, G. L.; Courtney, K. D.; Andres, B.; Featherstone, R. M. Biochem. Pharmacol. 1961, 7, 88-95]. The assay solution consisted of 0.1 unit/ml BuChE from human serum, 0.1 M sodium phosphate buffer pH 8, 0.3 mM 5,5′-dithiobis (2-nitrobenzoic acid) (DTNB, Ellman's reagent), and 0.5 mM butyrylthiocholine iodide as the substrate of the enzymatic reaction. Enzyme activity was determined by measuring the absorbance at 405 nm during 5 minutes with a microplate reader Digiscan 340T. The tested compounds were preincubated with the enzyme for 10 minutes at 30° C. The reaction rate was calculated with, at least, triplicate measurements. The IC50 is defined as the concentration of each compound that reduces a 50% the enzymatic activity with respect to that without inhibitors.

The target in data set [1] is T2, AChE from bovine erythrocytes (Bos taurus, UniProt P23795).
T2 construct: 0.2 unit/ml AChE (Sigma Chemical Co. from bovine erythrocytes); purchased Sigma Chemical Co; host or cells: bovine erythrocytes
T2 sequence (P23795 31-614 isoform P23795-2 limits assumed): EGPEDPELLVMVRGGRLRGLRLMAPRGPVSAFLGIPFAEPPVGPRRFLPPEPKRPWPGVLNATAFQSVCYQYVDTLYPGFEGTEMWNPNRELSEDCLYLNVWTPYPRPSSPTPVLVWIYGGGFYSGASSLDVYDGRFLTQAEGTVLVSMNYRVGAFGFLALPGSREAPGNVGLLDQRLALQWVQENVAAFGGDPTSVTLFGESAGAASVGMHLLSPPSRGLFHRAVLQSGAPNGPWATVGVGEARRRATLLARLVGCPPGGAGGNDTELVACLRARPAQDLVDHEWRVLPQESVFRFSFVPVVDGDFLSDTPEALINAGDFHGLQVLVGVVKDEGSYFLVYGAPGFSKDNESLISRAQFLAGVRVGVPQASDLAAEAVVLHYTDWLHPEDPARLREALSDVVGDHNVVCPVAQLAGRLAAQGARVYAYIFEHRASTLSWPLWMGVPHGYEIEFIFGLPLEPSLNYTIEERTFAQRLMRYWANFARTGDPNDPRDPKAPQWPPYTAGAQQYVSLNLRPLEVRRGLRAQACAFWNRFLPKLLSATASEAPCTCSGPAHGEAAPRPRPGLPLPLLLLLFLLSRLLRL
The data set is described as follows: Acetylcholinesterase (AChE) inhibition, Ellman colorimetric method. In kind it is biochemical. As to the method:
Acetylcholinesterase (AChE) Inhibition (from Bovine Erythrocytes)
AChE inhibitory activity was evaluated at 30° C. by the colorimetric method reported by Ellman [Ellman, G. L.; Courtney, K. D.; Andres, B.; Featherstone, R. M. Biochem. Pharmacol. 1961, 7, 88-95]. The assay solution consisted of 0.1 M phosphate buffer pH 8, 0.3 mM 5,5′-dithiobis (2-nitrobenzoic acid) (DTNB, Ellman's reagent), 0.2 unit/ml AChE (Sigma Chemical Co. from bovine erythrocytes), and 0.5 mM acetylthiocholine iodide as the substrate of the enzymatic reaction. The compounds tested were added to the assay solution and pre incubated with the enzyme for 5 min at 30° C. After that period, the substrate was added. The absorbance changes at 405 nm were recorded for 5 min with a microplate reader Digiscan 340T, the reaction rates were compared, and the percent inhibition due to the presence of test compounds was calculated. The reaction rate was calculated with, at least, triplicate measurements, and the percent inhibition due to the presence of test compound was calculated relative to the compound-free control. The compound concentration producing 50% of AChE inhibition (IC50) was determined.

The subject of data set [2] is human neuroblastoma cell line SH-SY5Y. Nature of the data set: Toxicity measurement, LDH release cytotoxicity. Type of data set: cell-based. To be noted: SH-SY5Y cells, 24 hours exposure. The procedure:
The cytotoxicity effect of the molecules was tested in the human neuroblastoma cell line SH-SY5Y. These cells were cultured in 96-well plates in a 1:1 mixture of Ham's F12 nutrients and essential medium (MEM), supplemented with 10% fetal bovine serum and 1% penicillin/streptomycin, and grown in a 5% CO2 humidified incubator at 37° C.
The cells were plated at 10^4 cells for each well, at least, 48 hours before the toxicity measure. Cells were exposed for 24 hours to the compounds at different concentrations (from 10^−5 to 10^−9), quantitative assessment of cell death was made by measurement of the intracellular enzyme lactate dehydrogenase (LDH) (citotoxicity detection kit, Roche). The quantity of LDH was measured and evaluated in a microplate reader Anthos 2010, at 492 and 620 nm. Controls were taken as 100% viability.

In another data set the target is AChE peripheral site (Homo sapiens, UniProt P22303). Nature of the data set: Propidium competition, fluorescence. In kind it is binding. To be noted: 5 μM AChE incubated at least 6 hours, 20 μM propidium iodide, 1 mM Tris/HCl pH 8.0. The procedure:
Fluorescence was measured in a Fluostar optima plate reader (BMG). Measurements were carried out in 100 μl solution volume, in 96-well plates. The buffer used was 1 mM Tris/HCl, pH 8.0. 5 μM AchE was incubated, at least 6 hours, with the molecules at different concentrations. 20 μM propidium iodide was added 10 min before fluorescence measurement. The excitation wavelength was 485 nm, and that of emission, 620 nm.

pIC50: −log10 of the molar value. Read-outs that look alike come from different tables or passages of the source.

AChE peripheral site, sequence (P22303 32-614): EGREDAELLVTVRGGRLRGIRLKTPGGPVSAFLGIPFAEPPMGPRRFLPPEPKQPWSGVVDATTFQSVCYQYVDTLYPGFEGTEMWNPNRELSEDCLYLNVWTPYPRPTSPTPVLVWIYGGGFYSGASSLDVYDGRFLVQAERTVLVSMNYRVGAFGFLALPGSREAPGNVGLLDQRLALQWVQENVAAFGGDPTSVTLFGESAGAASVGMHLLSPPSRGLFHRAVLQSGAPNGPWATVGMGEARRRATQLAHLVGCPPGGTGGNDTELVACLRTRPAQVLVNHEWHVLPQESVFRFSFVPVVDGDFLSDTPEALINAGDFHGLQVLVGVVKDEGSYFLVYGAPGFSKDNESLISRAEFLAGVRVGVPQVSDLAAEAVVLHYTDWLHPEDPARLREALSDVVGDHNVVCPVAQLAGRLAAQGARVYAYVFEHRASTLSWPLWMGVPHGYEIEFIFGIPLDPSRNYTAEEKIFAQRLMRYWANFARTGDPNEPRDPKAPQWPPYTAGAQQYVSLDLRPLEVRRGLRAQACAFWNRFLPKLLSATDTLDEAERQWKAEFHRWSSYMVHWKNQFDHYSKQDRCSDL
T1 sequence (P06276 29-602): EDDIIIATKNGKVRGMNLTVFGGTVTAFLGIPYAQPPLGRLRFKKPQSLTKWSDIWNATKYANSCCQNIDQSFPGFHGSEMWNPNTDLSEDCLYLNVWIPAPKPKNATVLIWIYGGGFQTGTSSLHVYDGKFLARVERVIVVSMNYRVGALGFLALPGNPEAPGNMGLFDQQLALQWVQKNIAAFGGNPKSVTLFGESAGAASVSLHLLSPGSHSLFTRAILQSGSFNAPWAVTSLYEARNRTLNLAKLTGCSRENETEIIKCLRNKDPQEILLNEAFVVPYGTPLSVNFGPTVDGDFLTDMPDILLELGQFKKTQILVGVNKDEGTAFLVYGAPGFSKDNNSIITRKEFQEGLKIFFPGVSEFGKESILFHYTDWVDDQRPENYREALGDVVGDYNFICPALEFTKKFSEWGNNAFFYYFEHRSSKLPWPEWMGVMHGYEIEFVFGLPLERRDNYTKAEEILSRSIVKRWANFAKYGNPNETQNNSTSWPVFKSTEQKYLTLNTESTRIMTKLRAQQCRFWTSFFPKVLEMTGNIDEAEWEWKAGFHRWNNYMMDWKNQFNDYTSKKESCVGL

Regarding `O=C(NCCC1CCN(Cc2ccccc2)CC1)OCCc1c[nH]c2ccccc12` [Compound 7, [2-(1-Benzyl-piperidin-4-yl)-ethyl]-carbamic acid 2-(1H-indol-3-yl)-ethyl ester], the negative logarithm of the IC50 (pIC50) on BuChE from human serum (BuChE from human serum, 30° C., pH 8, 10 min preincubation, butyrylthiocholine iodide substrate, read-out: IC50 BuChE) was 7.52; in data set [1] (AChE from bovine erythrocytes, 30° C., pH 8, 5 min preincubation, acetylthiocholine iodide substrate, read-out: IC50 AChE), 6.00. Moreover, the Toxicity in data set [2] is more than 100 µM.
Turning to `O=C(CCc1c[nH]c2ccccc12)NCCC1CCN(Cc2ccccc2)CC1` [Compound 5, N-[2-(1-Benzyl-piperidin-4-yl)-ethyl]-3-(1H-indol-3-yl)-propionamide], the pIC50 against BuChE from human serum was 10.30; in data set [1], 5.70. Also, the “selectivity with respect to AChE” value on BuChE from human serum (BuChE versus AChE) was 5 orders of magnitude. For the same compound, the Toxicity in data set [2] is more than 100 µM. Moreover, the Propidium competition at AChE peripheral site was found to be 100 µM.
With `O=C(CCCc1c[nH]c2ccccc12)NCCC1CCN(Cc2ccccc2)CC1` [Compound 6, N-[2-(1-Benzyl-piperidin-4-yl)-ethyl]-4-(1H-indol-3-yl)-butyramide], the pIC50 against BuChE from human serum was 8.30; in data set [1] it was 6.52. For the same compound, in data set [2], the Toxicity was more than 100 µM. This compound also yielded a Propidium competition at AChE peripheral site of 100 µM.
For `O=C(Cc1c[nH]c2ccccc12)NCCC1CCN(Cc2ccccc2)CC1` [Compound 1, N-[2-(1-Benzyl-piperidin-4-yl)-ethyl]-2-(lH-indol-3-yl)-acetamide], the pIC50 against BuChE from human serum is 9.10; in data set [1], 6.70. The Toxicity in data set [2] is more than 100 µM. At AChE peripheral site, this compound displayed a Propidium competition of 1 µM.
For the compound `Cn1cc(CC(=O)NCCC2CCN(Cc3ccccc3)CC2)c2ccccc21` [Compound 2, N-[2-(1-Benzyl-piperidin-4-yl)-ethyl]-2-(1-methyl-1H-indol-3-yl)-acetamide], the negative-log IC50 (pIC50) on BuChE from human serum is 9.00; in data set [1] it was 6.40. This compound also returned a Toxicity in data set [2] of more than 100 µM. The compound further returned a Propidium competition at AChE peripheral site of 100 µM.
Regarding `O=C(Cc1c[nH]c2ccc(Br)cc12)NCCC1CCN(Cc2ccccc2)CC1` [Compound 4, N-[2-(1-Benzyl-piperidin-4-yl)-ethyl]-2-(5-bromo-1H-indol-3-yl)-acetamide], the pIC50 on BuChE from human serum was 9.60; in data set [1] it was 6.60. The compound also showed a Toxicity in data set [2] of more than 100 µM. At AChE peripheral site, this compound had a Propidium competition of 1 µM.
With `Cc1[nH]c2ccccc2c1CC(=O)NCCC1CCN(Cc2ccccc2)CC1` [Compound 3, N-[2-(1-Benzyl-piperidin-4-yl)-ethyl]-2-(2-methyl-1H-indol-3-yl)-acetamide], the pIC50 against BuChE from human serum was 8.70; in data set [1] it was 6.70. This compound yielded a Toxicity in data set [2] of more than 100 µM. Also, the Propidium competition on AChE peripheral site turned out to be 100 µM.
